Test results from PMC6272711, “5-Methoxyquinoline Derivatives as a New Class of EZH2 Inhibitors” (Molecules, 2015).

Legend:
[1] = target: EZH2 (Homo sapiens, UniProt Q15910); experiment: AlphaLISA assay for EZH2; type: biochemical; details: enzymatic assay; means of at least three measurements
[2] = tested on: HCT15; experiment: MTT cell growth inhibition, HCT15; type: cell-based, human; details: Homo sapiens, HCT-15, 96 h, read-out: IC50 HCT15, MTT, treatment 96 h; means of at least three measurements
[3] = tested on: MDA-MB-231; experiment: MTT cell growth inhibition, MDA-MB-231; type: cell-based; details: Homo sapiens, MDA-MB-231, 96 h, read-out: IC50 MDA-MB-231

Sequence of EZH2 (Q15910 whole entry): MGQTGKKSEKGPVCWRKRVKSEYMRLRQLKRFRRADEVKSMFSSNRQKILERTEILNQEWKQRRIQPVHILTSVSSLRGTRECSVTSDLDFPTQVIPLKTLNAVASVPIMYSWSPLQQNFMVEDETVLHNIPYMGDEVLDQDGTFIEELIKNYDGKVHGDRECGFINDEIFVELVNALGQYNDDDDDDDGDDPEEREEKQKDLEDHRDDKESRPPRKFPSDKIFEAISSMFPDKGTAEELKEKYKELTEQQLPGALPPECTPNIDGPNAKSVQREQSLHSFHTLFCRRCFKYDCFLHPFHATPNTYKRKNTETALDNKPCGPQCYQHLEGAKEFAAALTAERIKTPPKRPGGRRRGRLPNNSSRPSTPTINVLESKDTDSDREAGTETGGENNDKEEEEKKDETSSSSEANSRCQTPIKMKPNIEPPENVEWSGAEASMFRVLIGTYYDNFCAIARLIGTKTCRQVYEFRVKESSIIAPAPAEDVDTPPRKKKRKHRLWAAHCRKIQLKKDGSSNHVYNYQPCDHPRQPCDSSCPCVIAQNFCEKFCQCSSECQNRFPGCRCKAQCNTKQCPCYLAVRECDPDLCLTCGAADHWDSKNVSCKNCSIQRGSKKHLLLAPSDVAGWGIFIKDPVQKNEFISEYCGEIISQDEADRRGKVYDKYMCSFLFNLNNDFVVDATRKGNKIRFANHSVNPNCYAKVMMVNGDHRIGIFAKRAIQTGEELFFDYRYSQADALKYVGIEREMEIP
Sequence of EZH2 (O75530 whole entry partner): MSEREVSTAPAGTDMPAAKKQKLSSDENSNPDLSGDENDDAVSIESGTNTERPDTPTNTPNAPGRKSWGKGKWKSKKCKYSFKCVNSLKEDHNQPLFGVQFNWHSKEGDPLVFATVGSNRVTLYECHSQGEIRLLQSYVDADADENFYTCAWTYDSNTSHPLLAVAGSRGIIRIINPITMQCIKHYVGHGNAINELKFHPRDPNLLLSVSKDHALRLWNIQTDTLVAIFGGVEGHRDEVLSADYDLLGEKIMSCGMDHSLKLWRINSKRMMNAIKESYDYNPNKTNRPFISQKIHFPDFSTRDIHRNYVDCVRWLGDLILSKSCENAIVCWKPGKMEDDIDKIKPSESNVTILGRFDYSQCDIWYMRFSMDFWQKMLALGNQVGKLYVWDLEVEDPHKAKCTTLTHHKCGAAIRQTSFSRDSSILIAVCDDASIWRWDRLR
Sequence of EZH2 (Q15022 whole entry partner): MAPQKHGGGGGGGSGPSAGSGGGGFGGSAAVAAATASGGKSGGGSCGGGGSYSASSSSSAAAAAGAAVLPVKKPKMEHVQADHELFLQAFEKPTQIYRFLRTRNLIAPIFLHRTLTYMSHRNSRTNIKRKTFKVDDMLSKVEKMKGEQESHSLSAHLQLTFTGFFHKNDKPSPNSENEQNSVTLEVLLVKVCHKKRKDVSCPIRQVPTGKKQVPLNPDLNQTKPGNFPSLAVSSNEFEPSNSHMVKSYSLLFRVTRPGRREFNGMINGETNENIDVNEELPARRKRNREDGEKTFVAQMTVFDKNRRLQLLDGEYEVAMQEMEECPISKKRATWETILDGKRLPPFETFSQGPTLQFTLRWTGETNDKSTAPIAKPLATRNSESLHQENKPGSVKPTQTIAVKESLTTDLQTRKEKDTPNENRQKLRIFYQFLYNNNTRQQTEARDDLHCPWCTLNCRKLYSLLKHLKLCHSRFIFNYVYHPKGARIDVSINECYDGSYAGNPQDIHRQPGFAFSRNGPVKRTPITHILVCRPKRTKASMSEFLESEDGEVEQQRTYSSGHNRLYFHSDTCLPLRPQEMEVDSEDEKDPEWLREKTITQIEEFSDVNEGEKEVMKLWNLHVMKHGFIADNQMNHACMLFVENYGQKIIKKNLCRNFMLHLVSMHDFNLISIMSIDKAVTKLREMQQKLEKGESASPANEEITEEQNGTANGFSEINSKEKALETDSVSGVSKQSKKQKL

SMILES	IC50 [1] [µM]	IC50 [2] [µM]	IC50 [3] [µM]
COc1cccc2nc(Nc3ncccn3)cc(NC3CCN(Cc4ccccc4)CC3)c12 [Compound 5d, N4-(1-Benzylpiperidin-4-yl)-5-methoxy-N2-(pyrimidin-2-yl)quinoline-2,4-diamine]	17.5 ± 0.96	> 20	> 20
COc1ccc(Nc2cc(N3CCCN(C)CC3)nc3cccc(OC)c23)c(C)c1 [Compound 5q, 5-Methoxy-N-(4-methoxy-2-methylphenyl)-2-(4-methyl-1,4-diazepan-1-yl)quinolin-4-amine]	34.8 ± 1.54	16.9 ± 0.36	14.5 ± 1.23
COc1cccc2nc(N3CCN(C)CC3)cc(NC3CCN(Cc4ccccc4)CC3)c12 [Compound 5a, N-(1-Benzylpiperidin-4-yl)-5-methoxy-2-(4-methylpiperazin-1-yl)quinolin-4-amine]	16.4 ± 1.24	12.3 ± 0.95	11.9 ± 1.83
COc1cccc2nc(Cl)cc(NC3CCN(Cc4ccccc4)CC3)c12 [Compound 1, N-(1-benzylpiperidin-4-yl)-2-chloro-5-methoxyquinolin-4-amine]	–	–	> 20
COc1cc(OC)c2nc(N3CCCN(C)CC3)cc(NC3CCN(C)CC3)c2c1 [Compound 9h, 6,8-Dimethoxy-2-(4-methyl-1,4-diazepan-1-yl)-N-(1-methylpiperidin-4-yl)quinolin-4-amine]	14.9 ± 1.71	19.8 ± 1.27	13.2 ± 1.64
COc1cccc2nc(N3CCCN(C)CC3)cc(Nc3cncnc3)c12 [Compound 5t, 5-Methoxy-2-(4-methyl-1,4-diazepan-1-yl)-N-(pyrimidin-5-yl)quinolin-4-amine]	35.3 ± 1.61	> 20	> 20
COc1cccc2nc(N3CCCN(C)CC3)cc(NC3CCN(Cc4ccccc4)CC3)c12 [Compound 5g, N-(1-Benzylpiperidin-4-yl)-5-methoxy-2-(4-methyl-1,4-diazepan-1-yl)quinolin-4-amine]	6.6 ± 0.49	3.78 ± 0.07	4.56 ± 0.24
COc1cccc2nc(N3CCCN(C)CC3)cc(NCCN3CCN(C)CC3)c12 [Compound 5j, 5-Methoxy-2-(4-methyl-1,4-diazepan-1-yl)-N-(2-(4-methylpiperazin-1-yl)ethyl)quinolin-4-amine]	4.2 ± 0.2	18.6 ± 2.2	12.4 ± 0.95
COc1ccccc1Nc1cc(N2CCCN(C)CC2)nc2cccc(OC)c12 [Compound 5o, 5-Methoxy-N-(2-methoxyphenyl)-2-(4-methyl-1,4-diazepan-1-yl)quinolin-4-amine]	17.5 ± 1.13	> 20	> 20
COc1cccc2nc(N3CCCN(C)CC3)cc(NC3CCN(C(C)C)CC3)c12 [Compound 5i, N-(1-Isopropylpiperidin-4-yl)-5-methoxy-2-(4-methyl-1,4-diazepan-1-yl)quinolin-4-amine]	17.4 ± 1.07	> 20	15.7 ± 1.27
COc1cc(OC)c2c(NC3CCN(C)CC3)cc(N3CCCN(C)CC3)nc2c1 [Compound 9e, 5,7-Dimethoxy-2-(4-methyl-1,4-diazepan-1-yl)-N-(1-methylpiperidin-4-yl)quinolin-4-amine]	6.7 ± 0.36	10.6 ± 0.83	12.5 ± 0.62
COc1cccc2nc(N3CCOCC3)cc(NC3CCN(Cc4ccccc4)CC3)c12 [Compound 5b, N-(1-Benzylpiperidin-4-yl)-5-methoxy-2-morpholinoquinolin-4-amine]	23 ± 2.06	15.6 ± 1.27	14.2 ± 1.97
COc1cccc2nc(N3CCCN(C)CC3)cc(NCCC(C)C)c12 [Compound 5h, N-Isopentyl-5-methoxy-2-(4-methyl-1,4-diazepan-1-yl)quinolin-4-amine]	11.5 ± 1.21	5.46 ± 0.85	4.31 ± 0.57
COc1cccc2nc(N3CCCN(C)CC3)cc(Nc3ccc([N+](=O)[O-])cc3)c12 [Compound 5u, 5-Methoxy-2-(4-methyl-1,4-diazepan-1-yl)-N-(4-nitrophenyl)quinolin-4-amine]	26.2 ± 2.54	17.8 ± 1.27	14.9 ± 2.2
COc1cccc2nc(N3CCCN(C)CC3)cc(Nc3cc(C(F)(F)F)cc(C(F)(F)F)c3)c12 [Compound 5v, N-(3,5-Bis(trifluoromethyl)phenyl)-5-methoxy-2-(4-methyl-1,4-diazepan-1-yl)quinolin-4-amine]	34.1 ± 2.22	10.2 ± 1.24	> 20
COc1ccc2c(NC3CCN(C)CC3)cc(N3CCCN(C)CC3)nc2c1OC [Compound 9i, 7,8-Dimethoxy-2-(4-methyl-1,4-diazepan-1-yl)-N-(1-methylpiperidin-4-yl)quinolin-4-amine]	13.7 ± 1.32	> 20	> 20
COc1cccc2nc(N3CCCN(C)CC3)cc(Nc3ccc(C(C)C)cc3)c12 [Compound 5n, N-(4-Isopropylphenyl)-5-methoxy-2-(4-methyl-1,4-diazepan-1-yl)quinolin-4-amine]	26.4 ± 2.04	14.6 ± 1.27	13.2 ± 2.53
COc1cccc(Nc2cc(N3CCCN(C)CC3)nc3cccc(OC)c23)c1 [Compound 5s, 5-Methoxy-N-(3-methoxyphenyl)-2-(4-methyl-1,4-diazepan-1-yl)quinolin-4-amine]	16.8 ± 0.94	19.6 ± 0.56	16.9 ± 1.06
COc1ccc2nc(N3CCCN(C)CC3)cc(NC3CCN(C)CC3)c2c1OC [Compound 9d, 5,6-Dimethoxy-2-(4-methyl-1,4-diazepan-1-yl)-N-(1-methylpiperidin-4-yl)quinolin-4-amine]	5.6 ± 0.45	8.6 ± 2.2	12.4 ± 0.95
COc1cccc2nc(N3CCCCC3)cc(NC3CCN(Cc4ccccc4)CC3)c12 [Compound 5c, N-(1-Benzylpiperidin-4-yl)-5-methoxy-2-(piperidin-1-yl)quinolin-4-amine]	32 ± 2.78	7.8 ± 0.46	5.6 ± 0.14
COc1cc2nc(N3CCCN(C)CC3)cc(NC3CCN(C)CC3)c2cc1OC [Compound 9g, 6,7-Dimethoxy-2-(4-methyl-1,4-diazepan-1-yl)-N-(1-methylpiperidin-4-yl)quinolin-4-amine]	17.8 ± 2.07	15.9 ± 1.85	> 20
COc1cccc2nc(Nc3ccc([N+](=O)[O-])cc3)cc(NC3CCN(Cc4ccccc4)CC3)c12 [Compound 5e, N4-(1-Benzylpiperidin-4-yl)-5-methoxy-N2-(4-nitrophenyl)quinoline-2,4-diamine]	29.4 ± 1.01	17.8 ± 1.27	14.9 ± 2.2
COc1cccc2nc(N3CCCN(C)CC3)cc(Nc3ccc(N(C)C)cc3)c12 [Compound 5p, N1-(5-Methoxy-2-(4-methyl-1,4-diazepan-1-yl)quinolin-4-yl)-N4,N4-dimethylbenzene-1,4-diamine]	27.6 ± 0.97	17.4 ± 1.54	16.2 ± 1.67
COc1cccc2nc(Nc3cc(C(F)(F)F)cc(C(F)(F)F)c3)cc(NC3CCN(Cc4ccccc4)CC3)c12 [Compound 5f, N4-(1-Benzylpiperidin-4-yl)-N2-(3,5-bis(trifluoromethyl)phenyl)-5-methoxyquinoline-2,4-diamine]	21.6 ± 2.35	10.2 ± 1.24	> 20
COc1cccc2nc(N3CCCN(C)CC3)cc(NC3CCOCC3)c12 [Compound 5l, 5-Methoxy-2-(4-methyl-1,4-diazepan-1-yl)-N-(tetrahydro-2H-pyran-4-yl)quinolin-4-amine]	2.8 ± 0.21	15.5 ± 0.2	2.4 ± 0.49
